Laboratory results: patent US8796292B2, “Selective antibacterials for clostridium difficile infections” (GLSynthesis Inc., priority 2009, dated 2014)
Values after ≈ are worked out from the molar mass of the structure shown. Like-named read-outs stand apart in the source and are kept apart here.

What was measured:
Experiment in all cases: agar dilution MIC assay of anaerobic bacteria
Bi. longum = type: cell-based, Bifidobacterium longum
In short: (§1)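 Growth inhibition is scored as absence of colony formation on agar containing serial drug dilutions, following CLSI anaerobe guidance. Plates receive 500-1000 CFU and incubate anaerobically at 35° C. for 48 hours.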

L. casei = type: cell-based, Lactobacillus casei; details: Lacticaseibacillus casei
In short: as §1

C. difficile = type: cell-based, Clostridium difficile; details: Clostridioides difficile, read-out: MIC
In short: as §1

Ba. fragilis = type: cell-based; details: Bacteroides fragilis
In short: as §1

L. acidophilus = type: cell-based; details: Lactobacillus acidophilus
In short: as §1

Bi. brevi = type: cell-based, Bifidobacterium brevi
In short: as §1

E. lentum = type: cell-based, Eubacterium lentum
In short: as §1

- MIC (Bi. longum; Bi. Longum, Strain no. 3968 (ATCC strain), Table 3): 4 µg/mL (≈ 23.4 µM)
- MIC (Bi. longum; Bifidobacterium longum, Bi. longum, Micromyx Number 3968, Table 1, read-out: MIC): 4 µg/mL (≈ 23.4 µM)
- MIC (L. casei; Micromyx Number 1722, Table 1): > 16 µg/mL
- MIC (L. casei; Strain no. 1722 (ATCC strain), Table 3): > 32 µg/mL
- MIC (C. difficile; C. diff. Strain no. 18285, Table 4): 2 µg/mL (≈ 11.7 µM)
- MIC (C. difficile; C. diff. Strain no. 19265, Table 4): 0.5 µg/mL (≈ 2.92 µM)
- MIC (C. difficile; C. diff. Strain no. 19273, Table 4): 0.25 µg/mL (≈ 1.46 µM)
- MIC (C. difficile; C. diff. Strain no. 19281, Table 4): 0.5 µg/mL (≈ 2.92 µM)
- MIC (C. difficile; C. diff. Strain no. 19291, Table 4): 0.5 µg/mL (≈ 2.92 µM)
- MIC (C. difficile; C. diff. Strain no. 19369, Table 4): 0.5 µg/mL (≈ 2.92 µM)
- MIC (C. difficile; C. diff. Strain no. 19382, Table 4): 0.5 µg/mL (≈ 2.92 µM)
- MIC (C. difficile; C. diff. Strain no. 19540, Table 4): 4 µg/mL (≈ 23.4 µM)
- MIC (C. difficile; C. diff. Strain no. 19580, Table 4): 2 µg/mL (≈ 11.7 µM)
- MIC (C. difficile; C. diff. Strain no. 19680, Table 4): 4 µg/mL (≈ 23.4 µM)
- MIC (C. difficile; C. diff. Strain no. 19681, Table 4): 1 µg/mL (≈ 5.84 µM)
- MIC (C. difficile; C. diff. Strain no. 19683, Table 4): 2 µg/mL (≈ 11.7 µM)
- MIC (C. difficile; C. diff. Strain no. 19687, Table 4): 4 µg/mL (≈ 23.4 µM)
- MIC (C. difficile; C. diff. Strain no. 20066, Table 4): 4 µg/mL (≈ 23.4 µM)
- MIC (C. difficile; C. diff. Strain no. 20152, Table 4): 1 µg/mL (≈ 5.84 µM)
- MIC (C. difficile; C. diff. Strain no. 20307, Table 4): 0.5 µg/mL (≈ 2.92 µM)
- MIC (C. difficile; C. diff. Strain no. 20494, Table 4): 1 µg/mL (≈ 5.84 µM)
- MIC (C. difficile; C. diff. Strain no. 20680, Table 4): 4 µg/mL (≈ 23.4 µM)
- MIC (C. difficile; C. diff. Strain no. 20934, Table 4): 1 µg/mL (≈ 5.84 µM)
- MIC (C. difficile; C. diff. Strain no. 21099, Table 4): 2 µg/mL (≈ 11.7 µM)
- MIC (C. difficile; C. diff., Micromyx Number 3579, Table 2): 0.5 µg/mL (≈ 2.92 µM)
- MIC (C. difficile; C. diff., Micromyx Number 3580, Table 2): 0.5 µg/mL (≈ 2.92 µM)
- MIC (C. difficile; C. diff., Micromyx Number 3581, Table 2): 0.5 µg/mL (≈ 2.92 µM)
- MIC (C. difficile; C. diff., Micromyx Number 3582 (ATCC strain), Table 2): 0.5 µg/mL (≈ 2.92 µM)
- MIC (C. difficile; C. diff., Strain no. 3580, Table 3): 1 µg/mL (≈ 5.84 µM)
- MIC (C. difficile; C. diff., Strain no. 3581, Table 3): 1 µg/mL (≈ 5.84 µM)
- MIC (C. difficile; C. diff., Strain no. 3582, Table 3): 0.5 µg/mL (≈ 2.92 µM)
- MIC (C. difficile; C. diff., Strain no. 3584, Table 3): 0.5 µg/mL (≈ 2.92 µM)
- MIC (C. difficile; C. diff., Strain no. 3585, Table 3): 1 µg/mL (≈ 5.84 µM)
- MIC (C. difficile; C. diff., Strain no. 3586, Table 3): 0.12 µg/mL (≈ 0.701 µM)
- MIC (C. difficile; C. diff., Strain no. 3587, Table 3): 1 µg/mL (≈ 5.84 µM)
- MIC (C. difficile; C. diff., Strain no. 3588, Table 3): 0.5 µg/mL (≈ 2.92 µM)
- MIC (C. difficile; C. diff., Strain no. 3589, Table 3): 2 µg/mL (≈ 11.7 µM)
- MIC (C. difficile; C. diff., Strain no. 4381 (ATCC strain), Table 3): 0.5 µg/mL (≈ 2.92 µM)
- MIC (C. difficile; C. difficile, Micromyx Number 1209, Table 1): 0.5 µg/mL (≈ 2.92 µM)
- MIC (C. difficile; C. difficile, Micromyx Number 3579, Table 1): 0.25 µg/mL (≈ 1.46 µM)
- MIC (C. difficile; C. difficile, Micromyx Number 3580, Table 1): 0.5 µg/mL (≈ 2.92 µM)
- MIC (C. difficile; C. difficile, Micromyx Number 3581, Table 1): 1 µg/mL (≈ 5.84 µM)
- MIC (C. difficile; C. difficile, Micromyx Number 3582, Table 1): 0.25 µg/mL (≈ 1.46 µM)
- MIC (C. difficile; C. difficile, Micromyx Number 3584, Table 1): 0.5 µg/mL (≈ 2.92 µM)
- MIC (C. difficile; C. difficile, Micromyx Number 3585, Table 1): 0.5 µg/mL (≈ 2.92 µM)
- MIC (C. difficile; C. difficile, Micromyx Number 3586, Table 1): 0.5 µg/mL (≈ 2.92 µM)
- MIC (C. difficile; C. difficile, Micromyx Number 3587, Table 1): 1 µg/mL (≈ 5.84 µM)
- MIC (C. difficile; C. difficile, Micromyx Number 3588, Table 1): 0.5 µg/mL (≈ 2.92 µM)
- MIC (C. difficile; C. difficile, Micromyx Number 3589, Table 1): 1 µg/mL (≈ 5.84 µM)
- MIC (C. difficile; C. difficile, Micromyx Number 3590, Table 1): 0.5 µg/mL (≈ 2.92 µM)
- MIC (C. difficile; C. difficile, Micromyx Number 3591, Table 1): 0.5 µg/mL (≈ 2.92 µM)
- MIC (C. difficile; C. difficile, Micromyx Number 3593, Table 1): 0.5 µg/mL (≈ 2.92 µM)
- MIC (C. difficile; C. difficile, Micromyx Number 3594, Table 1): 1 µg/mL (≈ 5.84 µM)
- MIC (C. difficile; C. difficile, Micromyx Number 3595, Table 1): 1 µg/mL (≈ 5.84 µM)
- MIC (C. difficile; C. difficile, Micromyx Number 4381 (ATCC strain), Table 1): 0.5 µg/mL (≈ 2.92 µM)
- MIC (Ba. fragilis; B. fragilis, Micromyx Number 0123 (ATCC strain), Table 2): 0.5 µg/mL (≈ 2.92 µM)
- MIC (Ba. fragilis; B. fragilis, Strain no. 0123 (ATCC strain), Gram-negative (control), Table 3): 0.5 µg/mL (≈ 2.92 µM)
- MIC (Ba. fragilis; Ba. fragilis, Micromyx Number 0123 (ATCC strain), Gram negative, Table 1): 1 µg/mL (≈ 5.84 µM)
- MIC (L. acidophilus; Micromyx Number 0681, Table 1): > 16 µg/mL
- MIC (L. acidophilus; Strain no. 0681, Table 3): > 32 µg/mL
- MIC (Bi. brevi; Bifidobacterium breve, Bi. Breve, Strain no. 3967 (ATCC strain), Table 3): 4 µg/mL (≈ 23.4 µM)
- MIC (Bi. brevi; Bifidobacterium, Bi. brevi, Micromyx Number 3967, Table 1): > 16 µg/mL
- MIC (E. lentum; Eggerthella lenta, E. lentum, Micromyx Number 1274, Table 1, read-out: MIC): 0.5 µg/mL (≈ 2.92 µM)
- MIC (E. lentum; Eu. Lentum, Strain no. 1274 (ATCC strain), Table 3): 0.5 µg/mL (≈ 2.92 µM)
Compound: Cc1ncc([N+](=O)[O-])n1CCO [metronidazole, reference compound]
